The source of these data is ChEMBL document CHEMBL1201862, “PubChem BioAssay data set” (2004).

Experiment [1] addresses T1, Interleukin-8 (Homo sapiens, UniProt P10145). The experiment in a line: Dose Response confirmation of uHTS small molecule hits for cystic fibrosis induced NFkb Inhibitors in a PAF-induced IL8 counterscreen. Type of experiment: functional. As to conditions: read-out: IC50_Mean. On the technique in general: The purpose of a counterscreen is to sort out artefacts and off-target activity.

The target in experiment [2] is T1, Interleukin-8. Briefly: Dose Response confirmation of uHTS small molecule hits for cystic fibrosis induced NFkb Inhibitors in a TNFa-induced IL8 counterscreen. It counts as functional. The conditions noted are these: read-out: IC50_Mean.
The target in a further experiment is Genome polyprotein (dengue virus type 2, UniProt P29990). The experiment in a line: flavivirus cap methylation enzyme inhibition – biochemical, confirmation dose response, primary screen (AID 588689). Type of experiment: functional.
Experiment [3] has as its target Adenosylmethionine-8-amino-7-oxononanoate aminotransferase (Mycobacterium tuberculosis, UniProt P9WQ81). The experiment in a line: Mycobacterium tuberculosis BioA enzyme inhibitor Measured in Biochemical System Using Plate Reader - 2163-02_Inhibitor_Dose_CherryPick_Activity. It counts as functional, Mycobacterium tuberculosis UT205.
For experiment [4], the target named is T2, Sentrin-specific protease 6 (Homo sapiens, UniProt Q9GZR1).
T2 sequence (Q9GZR1 whole entry): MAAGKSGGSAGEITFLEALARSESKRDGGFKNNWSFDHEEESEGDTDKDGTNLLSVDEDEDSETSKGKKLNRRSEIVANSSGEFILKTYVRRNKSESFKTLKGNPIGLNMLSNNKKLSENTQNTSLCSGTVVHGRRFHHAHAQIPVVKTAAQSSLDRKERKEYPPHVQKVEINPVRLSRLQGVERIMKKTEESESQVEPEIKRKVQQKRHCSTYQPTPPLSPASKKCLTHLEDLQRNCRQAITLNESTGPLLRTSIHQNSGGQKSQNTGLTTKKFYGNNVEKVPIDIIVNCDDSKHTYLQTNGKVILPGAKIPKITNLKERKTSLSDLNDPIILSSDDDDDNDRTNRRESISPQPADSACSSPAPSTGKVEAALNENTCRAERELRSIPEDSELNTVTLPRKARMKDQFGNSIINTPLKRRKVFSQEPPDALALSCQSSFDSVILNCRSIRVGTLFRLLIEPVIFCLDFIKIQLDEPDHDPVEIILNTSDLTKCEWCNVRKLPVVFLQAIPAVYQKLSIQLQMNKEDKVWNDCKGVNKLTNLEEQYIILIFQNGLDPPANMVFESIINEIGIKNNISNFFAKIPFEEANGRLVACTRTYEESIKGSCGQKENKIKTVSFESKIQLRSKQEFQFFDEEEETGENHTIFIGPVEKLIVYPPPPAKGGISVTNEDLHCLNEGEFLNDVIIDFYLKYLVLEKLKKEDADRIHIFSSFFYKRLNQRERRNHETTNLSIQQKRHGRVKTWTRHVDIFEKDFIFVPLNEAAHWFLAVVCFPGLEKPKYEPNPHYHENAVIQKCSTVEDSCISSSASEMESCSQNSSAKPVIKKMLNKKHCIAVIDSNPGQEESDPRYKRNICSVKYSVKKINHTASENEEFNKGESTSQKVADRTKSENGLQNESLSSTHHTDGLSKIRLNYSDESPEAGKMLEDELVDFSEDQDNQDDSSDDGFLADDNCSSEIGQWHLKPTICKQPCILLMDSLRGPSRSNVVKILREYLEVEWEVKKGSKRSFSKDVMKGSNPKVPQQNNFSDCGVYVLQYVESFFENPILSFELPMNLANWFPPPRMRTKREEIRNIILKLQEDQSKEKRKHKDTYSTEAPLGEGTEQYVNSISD
Briefly: inhibition of human SENP6 catalytic domain – biochemical, luminescence, set 2, SAR follow-up (AID 588598). It counts as functional.

Experiment [5] addresses T3, Caspase-3 (Homo sapiens, UniProt P42574).
T3 sequence (P42574 whole entry): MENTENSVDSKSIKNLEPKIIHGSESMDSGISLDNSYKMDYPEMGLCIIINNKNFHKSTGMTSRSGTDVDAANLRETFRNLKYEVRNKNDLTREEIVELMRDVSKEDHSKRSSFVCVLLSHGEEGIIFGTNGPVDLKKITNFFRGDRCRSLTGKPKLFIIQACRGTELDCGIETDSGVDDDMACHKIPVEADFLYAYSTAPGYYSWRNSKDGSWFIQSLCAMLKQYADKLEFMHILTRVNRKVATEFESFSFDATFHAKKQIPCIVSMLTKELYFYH
Briefly: inhibition of recombinant caspase-3 activity – biochemical, luminescence, set 2, selectivity assay for SENP protease inhibitor project, SAR follow-up (AID 588599). It counts as functional.

Experiment [6] has as its target T4, Sentrin-specific protease 8 (Homo sapiens, UniProt Q96LD8).
T4 sequence (Q96LD8 whole entry): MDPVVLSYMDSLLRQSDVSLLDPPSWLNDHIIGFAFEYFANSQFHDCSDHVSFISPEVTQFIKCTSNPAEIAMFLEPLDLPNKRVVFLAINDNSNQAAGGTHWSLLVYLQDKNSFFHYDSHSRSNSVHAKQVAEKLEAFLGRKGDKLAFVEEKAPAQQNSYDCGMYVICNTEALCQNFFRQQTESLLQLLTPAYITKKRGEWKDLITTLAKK
The experiment in a line: inhibition of sentrin protease 8 – biochemical, luminescence, set 2, SAR follow-up (AID 588601). Type of experiment: functional.

In experiment [7] the target is T5, Sentrin-specific protease 7 (Homo sapiens, UniProt Q9BQF6).
T5 sequence (Q9BQF6 whole entry): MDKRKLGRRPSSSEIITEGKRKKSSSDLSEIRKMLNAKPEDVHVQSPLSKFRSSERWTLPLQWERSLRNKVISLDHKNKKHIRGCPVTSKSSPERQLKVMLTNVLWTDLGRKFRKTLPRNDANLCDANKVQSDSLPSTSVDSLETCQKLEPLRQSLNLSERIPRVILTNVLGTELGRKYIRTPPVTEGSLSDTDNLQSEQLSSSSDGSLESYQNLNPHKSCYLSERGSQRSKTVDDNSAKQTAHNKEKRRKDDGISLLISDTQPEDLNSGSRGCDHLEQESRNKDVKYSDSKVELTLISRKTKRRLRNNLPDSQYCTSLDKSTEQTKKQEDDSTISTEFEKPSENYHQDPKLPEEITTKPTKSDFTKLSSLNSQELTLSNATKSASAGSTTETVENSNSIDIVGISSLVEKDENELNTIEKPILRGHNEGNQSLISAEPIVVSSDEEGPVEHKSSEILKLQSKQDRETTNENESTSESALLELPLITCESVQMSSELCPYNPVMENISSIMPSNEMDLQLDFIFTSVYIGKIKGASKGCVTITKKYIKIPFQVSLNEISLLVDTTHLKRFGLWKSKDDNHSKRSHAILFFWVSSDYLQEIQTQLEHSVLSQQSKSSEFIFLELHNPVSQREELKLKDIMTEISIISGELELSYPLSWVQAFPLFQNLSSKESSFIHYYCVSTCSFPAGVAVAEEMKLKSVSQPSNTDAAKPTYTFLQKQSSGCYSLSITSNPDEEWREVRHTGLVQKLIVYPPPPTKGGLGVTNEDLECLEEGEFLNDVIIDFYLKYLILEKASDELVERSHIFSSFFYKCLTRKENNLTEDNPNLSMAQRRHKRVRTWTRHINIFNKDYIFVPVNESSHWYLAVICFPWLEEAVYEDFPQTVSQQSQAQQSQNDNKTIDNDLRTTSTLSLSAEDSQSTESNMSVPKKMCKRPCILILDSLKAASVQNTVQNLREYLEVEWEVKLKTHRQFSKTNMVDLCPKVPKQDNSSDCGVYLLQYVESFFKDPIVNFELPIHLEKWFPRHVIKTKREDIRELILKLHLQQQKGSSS
The experiment in a line: inhibition of human SENP7 cleavage activity – biochemical, luminescence, set 2, SAR follow-up (AID 588600). It counts as functional.

In experiment [8] the target is T5, Sentrin-specific protease 7. The experiment in a line: inhibition of human SENP7 cleavage activity – biochemical, luminescence, SAR follow-up (AID 504497). Type of experiment: functional.
Experiment [9] deals with T2, Sentrin-specific protease 6. The experiment in a line: SAR Analysis of small molecule inhibitors of Sentrin-specific protease 6 (SENP6) using a Luminescent assay. [Related pubchem assays (depositor defined):AID2582, AID2599]. Type of experiment: functional.
In experiment [10] the target is T4, Sentrin-specific protease 8. The experiment in a line: inhibition of human SENP8 cleavage activity – biochemical, luminescence, SAR follow-up (AID 504501). Type of experiment: functional.
The target of experiment [11] is T3, Caspase-3. The experiment in a line: SAR Analysis of small molecule inhibitors of Sentrin-specific proteases (SENPs) using a Caspase-3 Selectivity assay. [Related pubchem assays (depositor defined):AID2540, AID2599, AID434973, AID489001]. Type of experiment: functional.
Experiment [12] has as its target DNA dC->dU-editing enzyme APOBEC-3G (Homo sapiens, UniProt Q9HC16). Briefly: inhibition of APOBEC3G ssDNA deamination – biochemical, fluorescence, single-stranded DNA substrate, SAR follow-up (AID 602136). It counts as functional. As to conditions: read-out: IC50_Mean.
The target of experiment [13] is DNA dC->dU-editing enzyme APOBEC-3A (Homo sapiens, UniProt P31941). Briefly: SAR analysis of small molecule inhibitors of APOBEC3A DNA Deaminase via a fluorescence-based single-stranded DNA deaminase assay. It counts as functional. As to conditions: read-out: IC50_Mean.
The nature of experiment [14]: inhibition of ARNT PAS-B/TACC3 complex formation – biochemical, AlphaScreen, cherry-picked samples, confirmation (AID 651703).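 Further: His-tagged ARNT PAS-B domain paired with GST-TACC3 E629A dimer coactivator fragment; potency of inhibitors that break up the complex and lower AlphaScreen signal.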 It counts as functional, Homo sapiens. Background: Alpha assays give light when donor and acceptor beads are brought close together.
In experiment [15] the target is Aryl hydrocarbon receptor (Homo sapiens, UniProt P35869). As to conditions: Potency.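 Further: confirmatory quantitative high-throughput screen measuring activation of the AhR signaling pathway.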

Calls of active or inactive are those of the source.

T1 sequence (P10145 whole entry): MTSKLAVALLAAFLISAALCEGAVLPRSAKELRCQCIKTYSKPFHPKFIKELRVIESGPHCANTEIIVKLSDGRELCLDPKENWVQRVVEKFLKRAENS
Sequence of Aryl hydrocarbon receptor (P35869 whole entry): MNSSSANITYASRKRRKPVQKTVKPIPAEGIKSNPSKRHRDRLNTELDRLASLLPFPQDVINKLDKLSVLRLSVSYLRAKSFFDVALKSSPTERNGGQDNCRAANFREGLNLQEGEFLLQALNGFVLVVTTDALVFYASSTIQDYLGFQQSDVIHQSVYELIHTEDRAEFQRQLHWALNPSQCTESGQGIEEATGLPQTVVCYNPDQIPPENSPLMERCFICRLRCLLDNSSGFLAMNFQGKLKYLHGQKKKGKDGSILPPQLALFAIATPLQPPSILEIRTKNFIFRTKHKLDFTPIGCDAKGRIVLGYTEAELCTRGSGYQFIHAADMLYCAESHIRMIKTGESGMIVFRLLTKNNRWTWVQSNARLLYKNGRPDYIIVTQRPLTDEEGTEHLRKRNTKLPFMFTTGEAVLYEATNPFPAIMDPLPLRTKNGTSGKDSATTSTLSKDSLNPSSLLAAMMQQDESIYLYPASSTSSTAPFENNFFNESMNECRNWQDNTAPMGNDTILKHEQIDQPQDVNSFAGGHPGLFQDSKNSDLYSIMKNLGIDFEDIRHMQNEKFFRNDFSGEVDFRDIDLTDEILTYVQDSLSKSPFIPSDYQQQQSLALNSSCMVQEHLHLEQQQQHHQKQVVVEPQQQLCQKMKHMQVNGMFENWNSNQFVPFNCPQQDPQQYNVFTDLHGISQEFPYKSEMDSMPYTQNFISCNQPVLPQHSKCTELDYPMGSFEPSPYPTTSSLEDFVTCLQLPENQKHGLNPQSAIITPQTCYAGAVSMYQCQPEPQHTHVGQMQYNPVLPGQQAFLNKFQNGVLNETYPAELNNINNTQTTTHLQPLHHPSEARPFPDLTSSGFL
Sequence of Genome polyprotein (P29990 2492-3391 limits assumed): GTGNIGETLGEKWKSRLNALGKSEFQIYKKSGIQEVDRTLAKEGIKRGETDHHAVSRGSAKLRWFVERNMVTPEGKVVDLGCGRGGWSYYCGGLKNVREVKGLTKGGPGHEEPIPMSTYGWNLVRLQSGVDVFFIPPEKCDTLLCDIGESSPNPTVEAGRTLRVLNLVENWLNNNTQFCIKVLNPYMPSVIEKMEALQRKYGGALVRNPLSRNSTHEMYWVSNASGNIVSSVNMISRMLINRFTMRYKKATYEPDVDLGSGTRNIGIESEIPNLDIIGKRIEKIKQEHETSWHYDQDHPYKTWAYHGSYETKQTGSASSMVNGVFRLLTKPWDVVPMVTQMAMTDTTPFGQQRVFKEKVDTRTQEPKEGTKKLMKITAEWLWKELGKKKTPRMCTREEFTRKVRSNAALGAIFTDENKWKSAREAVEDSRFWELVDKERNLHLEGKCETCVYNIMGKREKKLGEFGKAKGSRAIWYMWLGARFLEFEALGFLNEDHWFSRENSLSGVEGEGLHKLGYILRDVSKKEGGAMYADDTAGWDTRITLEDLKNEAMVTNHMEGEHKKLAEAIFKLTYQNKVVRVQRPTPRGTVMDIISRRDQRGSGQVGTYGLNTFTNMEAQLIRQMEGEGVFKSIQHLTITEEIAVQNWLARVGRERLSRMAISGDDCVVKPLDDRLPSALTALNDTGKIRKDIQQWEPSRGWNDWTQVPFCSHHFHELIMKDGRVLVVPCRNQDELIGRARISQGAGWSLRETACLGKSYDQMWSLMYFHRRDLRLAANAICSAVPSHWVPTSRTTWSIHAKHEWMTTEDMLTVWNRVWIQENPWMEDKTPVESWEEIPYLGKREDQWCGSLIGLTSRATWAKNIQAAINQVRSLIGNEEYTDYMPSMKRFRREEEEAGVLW
Sequence of DNA dC->dU-editing enzyme APOBEC-3A (P31941 whole entry, the tested form may be a part): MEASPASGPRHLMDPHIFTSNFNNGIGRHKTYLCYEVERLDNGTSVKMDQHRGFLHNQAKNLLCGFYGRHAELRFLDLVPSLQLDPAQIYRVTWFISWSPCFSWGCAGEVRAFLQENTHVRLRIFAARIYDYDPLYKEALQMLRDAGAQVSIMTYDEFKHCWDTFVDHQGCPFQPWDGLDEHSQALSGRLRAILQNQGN
Sequence of DNA dC->dU-editing enzyme APOBEC-3G (Q9HC16 whole entry): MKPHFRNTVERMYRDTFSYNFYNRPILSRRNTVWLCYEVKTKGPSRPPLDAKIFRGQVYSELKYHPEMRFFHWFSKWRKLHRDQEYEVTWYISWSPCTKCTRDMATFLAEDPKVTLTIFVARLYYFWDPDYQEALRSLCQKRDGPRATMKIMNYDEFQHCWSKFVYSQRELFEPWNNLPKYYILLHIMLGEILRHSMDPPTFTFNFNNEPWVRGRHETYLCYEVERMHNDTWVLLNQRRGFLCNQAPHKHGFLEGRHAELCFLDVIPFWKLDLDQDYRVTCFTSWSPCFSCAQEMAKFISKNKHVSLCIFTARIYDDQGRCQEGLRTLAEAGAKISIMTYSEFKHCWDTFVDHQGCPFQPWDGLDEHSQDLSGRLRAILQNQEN
Sequence of Adenosylmethionine-8-amino-7-oxononanoate aminotransferase (P9WQ81 whole entry): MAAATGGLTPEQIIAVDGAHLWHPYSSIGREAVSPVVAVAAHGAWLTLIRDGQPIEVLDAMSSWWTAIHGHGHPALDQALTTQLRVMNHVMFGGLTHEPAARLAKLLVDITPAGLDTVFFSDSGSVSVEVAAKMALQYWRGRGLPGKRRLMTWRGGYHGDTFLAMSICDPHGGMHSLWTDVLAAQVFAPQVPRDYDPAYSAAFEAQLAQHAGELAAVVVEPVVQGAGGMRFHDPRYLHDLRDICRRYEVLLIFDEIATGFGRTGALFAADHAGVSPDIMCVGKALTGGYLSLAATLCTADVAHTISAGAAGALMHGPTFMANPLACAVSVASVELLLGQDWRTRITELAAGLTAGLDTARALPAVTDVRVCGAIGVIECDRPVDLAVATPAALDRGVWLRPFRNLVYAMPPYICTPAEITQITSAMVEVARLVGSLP

On to `C=CCn1c(Oc2ccccc2F)nc2c1c(=O)n(C)c(=O)n2C`, for which the results for the IC50 at Interleukin-8 [1] and on Interleukin-8 [2] were 51.1 µM (inactive) and > 79 µM (inactive), respectively.
As usually defined, the AC50 is the midpoint of the concentration-response curve, whichever way the signal moves. Turning to `O=C(O)CN1C(=O)/C(=C\c2cc(Br)ccc2OCc2ccc([N+](=O)[O-])cc2)SC1=S`, the IC50 at Genome polyprotein is 30.3 µM (active). In addition, the AC50 in experiment [3] is 11.7 µM (active).
As for `COc1cccc(-n2nnc3c(N4CCN(C(=O)C(=O)c5c(C)[nH]c6ccccc56)CC4)ncnc32)c1`, the IC50 (in experiment [4]; at Caspase-3 [5]; in experiment [6]; in experiment [7]) was > 99 µM (inactive) each time.
With `CCCCc1ccc2nc(NC(=O)c3ccc(Br)o3)sc2c1`, the IC50 was 6.66 µM (active) in [4]; 3.8 µM (active) in experiment [8]; 5.94 µM (active) on Caspase-3 [5]; > 99 µM (inactive) in experiment [9]; 5.7 µM (active) in experiment [6]; > 99 µM (inactive) in [10]. Further, the IC50 is 8.4 µM (active) in experiment [7] and 11 µM (active) on Caspase-3 [11].
Take `COc1ccc(-c2nnc(SCc3nc4ccsc4c(=O)[nH]3)[nH]2)cc1`: the IC50 in experiment [12] is 66.4 µM (inactive); in experiment [13], > 99 µM (inactive).
Consider `C/C(=N\NC(=O)c1ccncc1)C12CC3CC(CC(C3)C1)C2`, for which the AC50 in experiment [14] is 88.3 µM (active).
With `CC(C)OC(=O)Nc1cccc(Cl)c1` [CHLORPROPHAM], the AC50 in experiment [15] was 63.1 µM (inconclusive).
